This assay concerns the target T1, HPK1 (Homo sapiens, UniProt Q92918).
T1 construct: A HiBiT tag was introduced by CRISPR on the N terminus of HPK1 in Jurkat cells; host or cells: Jurkat cells (ATCC TIB-152), monoclonal line with CRISPR knock-in of HiBiT at the endogenous HPK1 locus
Description: HPK1 Cellular HiBit Degradation Assay. In kind it is cell-based. Conditions: HiBiT HPK1 Jurkat cells, 24 hrs; for DC50: concentration at which 50% of HPK1 was remaining, read-out: DC50 Category; for Dmax: Jurkat, maximum degradation vs DMSO vehicle control, read-out: Dmax Category. In a few lines: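 Jurkat cells with CRISPR knock-in N-terminal HiBiT-HPK1 were treated with CTMs (11-point, 3.16-fold, 10 uM to 0.1 nM final) for 24 hrs at 37° C. HiBiT lytic luminescence, with parental Jurkat as background and DMSO as 100%, gave % HPK1 remaining; four-parameter fit yielded DC50 and Dmax (100 minus lowest % remaining).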
In general terms: The HiBiT peptide binds its large partner to form an active luciferase.

The term DC50 denotes the concentration at which degradation of the target reaches its halfway point. By Dmax is commonly meant the greatest extent of degradation seen.

T1 sequence (Q92918 whole entry): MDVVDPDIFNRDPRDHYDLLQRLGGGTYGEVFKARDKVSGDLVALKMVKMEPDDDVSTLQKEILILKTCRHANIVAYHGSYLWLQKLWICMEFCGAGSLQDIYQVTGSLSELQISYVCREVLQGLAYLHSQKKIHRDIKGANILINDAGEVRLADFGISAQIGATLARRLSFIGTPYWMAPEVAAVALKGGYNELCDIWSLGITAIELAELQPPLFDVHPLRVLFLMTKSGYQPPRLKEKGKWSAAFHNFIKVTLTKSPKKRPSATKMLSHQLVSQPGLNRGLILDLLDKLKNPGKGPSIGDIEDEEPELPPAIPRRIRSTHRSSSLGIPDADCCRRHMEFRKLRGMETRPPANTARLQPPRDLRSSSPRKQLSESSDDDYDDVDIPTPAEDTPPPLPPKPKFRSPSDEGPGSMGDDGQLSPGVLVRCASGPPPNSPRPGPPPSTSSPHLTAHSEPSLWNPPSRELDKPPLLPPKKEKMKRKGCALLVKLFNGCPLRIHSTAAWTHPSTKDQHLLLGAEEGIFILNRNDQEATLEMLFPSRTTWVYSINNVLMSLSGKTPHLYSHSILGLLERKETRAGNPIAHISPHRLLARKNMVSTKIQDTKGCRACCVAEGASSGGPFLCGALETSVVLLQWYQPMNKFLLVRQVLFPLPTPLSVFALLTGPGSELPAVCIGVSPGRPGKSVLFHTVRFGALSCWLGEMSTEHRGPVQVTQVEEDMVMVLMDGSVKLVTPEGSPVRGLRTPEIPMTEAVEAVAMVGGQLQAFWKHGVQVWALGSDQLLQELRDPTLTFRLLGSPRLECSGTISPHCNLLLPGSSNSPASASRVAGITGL

In the case of `CC(C)n1cnc2cc(-c3ccc4c(c3)N([C@H]3C[C@@H](N5CCCCC5)C3)C(=O)C43CCN(C(=O)[C@@H]4CCN(C(=O)C5CCN(c6ncc(C7CCC(=O)NC7=O)cn6)CC5)C4)CC3)nc(Nc3ccccc3F)c21` (stereo partly drawn) [Example 158, 3-(2-(4-((R)-3-(6-(4-((2-fluorophenyl)amino)-3-isopropyl-3H-imidazo[4,5-c]pyridin-6-yl)-2-oxo-1-((1S,3S)-3-(piperidin-1-yl)cyclobutyl)spiro[indoline-3,4′-piperidine]-1′-carbonyl)pyrrolidine-1-carbonyl)piperidin-1-yl)pyrimidin-5-yl)piperidine-2,6-dione], the DC50 is below 100 nM and the maximal degradation (Dmax) was 70 to 85%.
For `CC(C)n1cnc2cc(-c3ccc4c(c3)N([C@H]3C[C@@H](N5CCCCC5)C3)C(=O)C43CCN(C(=O)CC4CCN(C(=O)[C@H]5CC[C@H](Oc6ccc(C7CCC(=O)NC7=O)cn6)CC5)CC4)CC3)nc(NC3CC3)c21` (stereo partly drawn) [Example 161, 3-(6-{[(1R,4R)-4-[4-(2-{6-[4-(cyclopropylamino)-3-(propan-2-yl)-3H-imidazo[4,5-c]pyridin-6-yl]-2-oxo-1-[(1S,3S)-3-(piperidin-1-yl)cyclobutyl]-1,2-dihydrospiro[indole-3,4′-piperidin]-1′-yl}-2-oxoethyl)piperidine-1-carbonyl]cyclohexyl]oxy}pyridin-3-yl)piperidine-2,6-dione] the same measures were below 100 nM and above 85%.
Consider `CC(C)n1cnc2cc(-c3ccc4c(c3)N([C@H]3C[C@@H](N5CCCCC5)C3)C(=O)C43CCN(C(=O)[C@]4(C)CCN(C(=O)[C@H]5CC[C@H](Oc6ccc(C7CCC(=O)NC7=O)cn6)CC5)C4)CC3)nc(NC3CC3)c21` (stereo partly drawn) [Example 163, 3-(6-(((1R,4R)-4-((R)-3-(6-(4-(cyclopropylamino)-3-isopropyl-3H-imidazo[4,5-c]pyridin-6-yl)-2-oxo-1-((1S,3S)-3-(piperidin-1-yl)cyclobutyl)spiro[indoline-3,4′-piperidine]-1′-carbonyl)-3-methylpyrrolidine-1-carbonyl)cyclohexyl)oxy)pyridin-3-yl)piperidine-2,6-dione], for which the DC50 lay in the range of 100 to 500 nM and the Dmax was above 85%.
With `CC(C)n1cnc2cc(-c3ccc4c(c3)N([C@H]3C[C@@H](N5CCCCC5)C3)C(=O)C43CCN(C(=O)C4(C)CCN(C(=O)C5CCN(c6ccc(C7CCC(=O)NC7=O)cn6)CC5)CC4)CC3)nc(Oc3ccccc3F)c21` (stereo partly drawn) [Example 164, 3-(6-{4-[4-({6-[4-(2-fluorophenoxy)-3-(propan-2-yl)-3H-imidazo[4,5-c]pyridin-6-yl]-2-oxo-1-[(1S,3S)-3-(piperidin-1-yl)cyclobutyl]-1,2-dihydrospiro[indole-3,4′-piperidin]-1′-yl}carbonyl)-4-methylpiperidine-1-carbonyl]piperidin-1-yl}pyridin-3-yl)piperidine-2,6-dione], the DC50 fell in the range of 100 to 500 nM and the Dmax was above 85%.
For `CC(C)n1cnc2cc(-c3ccc4c(c3)N([C@H]3C[C@@H](N5CCCCC5)C3)C(=O)C43CCN(C(=O)C4(C)CCN(C(=O)C5CCN(c6ccc([C@@H]7CCC(=O)NC7=O)cn6)CC5)CC4)CC3)nc(OC3CCOCC3)c21` [Example 165, 3-(6-{4-[4-methyl-4-({6-[4-(oxan-4-yloxy)-3-(propan-2-yl)-3H-imidazo[4,5-c]pyridin-6-yl]-2-oxo-1-[(1S,3S)-3-(piperidin-1-yl)cyclobutyl]-1,2-dihydrospiro[indole-3,4′-piperidin]-1′-yl}carbonyl)piperidine-1-carbonyl]piperidin-1-yl}pyridin-3-yl)piperidine-2,6-dione] the same measures were below 100 nM and 70 to 85%.
For `CC(C)Nc1nc(-c2ccc3c(c2)N([C@H]2C[C@@H](N4CCCCC4)C2)C(=O)C32CCN(C(=O)C3(C)CCN(C(=O)C4CCN(c5ccc(C6CCC(=O)NC6=O)cn5)CC4)CC3)CC2)cc2ncn(C(C)C)c12` (stereo partly shown) [Example 166] the same measures were below 100 nM and above 85%.
On the same counts, the results for `CC(C)n1cnc2cc(-c3ccc4c(c3)N([C@H]3C[C@@H](N5CCCCC5)C3)C(=O)C43CCN(C(=O)C4CCN(C(=O)CC5CCN(c6ccc(C7CCC(=O)NC7=O)cn6)CC5)CC4)CC3)nc(Oc3ccccc3F)c21` (stereo partly drawn) [Example 167, 3-[6-(4-{2-[4-({6-[4-(2-fluorophenoxy)-3-(propan-2-yl)-3H-imidazo[4,5-c]pyridin-6-yl]-2-oxo-1-[(1S,3S)-3-(piperidin-1-yl)cyclobutyl]-1,2-dihydrospiro[indole-3,4′-piperidin]-1′-yl}carbonyl)piperidin-1-yl]-2-oxoethyl}piperidin-1-yl)pyridin-3-yl]piperidine-2,6-dione] are below 100 nM and 70 to 85%.
For the molecule `CC(C)n1cnc2cc(-c3ccc4c(c3)N([C@H]3C[C@@H](N5CCCCC5)C3)C(=O)C43CCN(C(=O)C4(C)CCN(C(=O)C5CCN(c6ccc(C7CCC(=O)NC7=O)cn6)CC5)CC4)CC3)nc(Oc3ccccc3)c21` (stereo partly drawn) [Example 168, 3-(6-{4-[4-methyl-4-({2-oxo-6-[4-phenoxy-3-(propan-2-yl)-3H-imidazo[4,5-c]pyridin-6-yl]-1-[(1S,3S)-3-(piperidin-1-yl)cyclobutyl]-1,2-dihydrospiro[indole-3,4′-piperidin]-1′-yl}carbonyl)piperidine-1-carbonyl]piperidin-1-yl}pyridin-3-yl)piperidine-2,6-dione], the DC50 was below 100 nM and the greatest degradation seen (Dmax) was above 85%.
As to `CC(C)Oc1nc(-c2ccc3c(c2)N([C@H]2C[C@@H](N4CCCCC4)C2)C(=O)C32CCN(C(=O)C3(C)CCN(C(=O)C4CCN(c5ccc(C6CCC(=O)NC6=O)cn5)CC4)CC3)CC2)cc2ncn(C(C)C)c12` (stereo partly drawn) [Example 169, 3-(6-{4-[4-methyl-4-({2-oxo-6-[3-(propan-2-yl)-4-(propan-2-yloxy)-3H-imidazo[4,5-c]pyridin-6-yl]-1-[(1S,3S)-3-(piperidin-1-yl)cyclobutyl]-1,2-dihydrospiro[indole-3,4′-piperidin]-1′-yl}carbonyl)piperidine-1-carbonyl]piperidin-1-yl}pyridin-3-yl)piperidine-2,6-dione], the DC50 was below 100 nM and the maximal degradation (Dmax) was above 85%.
On the same counts, the results for `CC(C)n1cnc2cc(-c3ccc4c(c3)N([C@H]3C[C@@H](N5CCCCC5)C3)C(=O)C43CCN(C(=O)C4(C)CCN(C(=O)C5CCN(c6ccc(C7CCC(=O)NC7=O)cn6)CC5)CC4)CC3)nc(N3CCCC3)c21` (stereo partly drawn) [Example 170, 3-(6-{4-[4-methyl-4-({2-oxo-6-[3-(propan-2-yl)-4-(pyrrolidin-1-yl)-3H-imidazo[4,5-c]pyridin-6-yl]-1-[(1S,3S)-3-(piperidin-1-yl)cyclobutyl]-1,2-dihydrospiro[indole-3,4′-piperidin]-1′-yl}carbonyl)piperidine-1-carbonyl]piperidin-1-yl}pyridin-3-yl)piperidine-2,6-dione] are 100 to 500 nM and 50 to 70%.
Turning to `CC(C)n1cnc2cc(-c3ccc4c(c3)N([C@H]3C[C@@H](N5CCCCC5)C3)C(=O)C43CCN(C(=O)C4(C)CCN(C(=O)C5CCN(c6ccc(C7CCC(=O)NC7=O)cn6)CC5)CC4)CC3)nc(N(C)C3CC3)c21` (stereo partly drawn) [Example 171, 3-[6-(4-{4-[(6-{4-[cyclopropyl(methyl)amino]-3-(propan-2-yl)-3H-imidazo[4,5-c]pyridin-6-yl}-2-oxo-1-[(1S,3S)-3-(piperidin-1-yl)cyclobutyl]-1,2-dihydrospiro[indole-3,4′-piperidin]-1′-yl)carbonyl]-4-methylpiperidine-1-carbonyl}piperidin-1-yl)pyridin-3-yl]piperidine-2,6-dione], the DC50 lay in the range of 100 to 500 nM and the Dmax lay within 70 to 85%.
For `CC(C(=O)N1CCN(C(=O)C2CCN(c3ccc(C4CCC(=O)NC4=O)cn3)CC2)CC1)N1CCC2(CC1)C(=O)N([C@H]1C[C@@H](N3CCCCC3)C1)c1cc(-c3cc4ncn(C(C)C)c4c(NC4CC4)n3)ccc12` (stereo partly drawn) [Example 172, 3-(6-{4-[4-(2-{6-[4-(cyclopropylamino)-3-(propan-2-yl)-3H-imidazo[4,5-c]pyridin-6-yl]-2-oxo-1-[(1S,3S)-3-(piperidin-1-yl)cyclobutyl]-1,2-dihydrospiro[indole-3,4′-piperidin]-1′-yl}propanoyl)piperazine-1-carbonyl]piperidin-1-yl}pyridin-3-yl)piperidine-2,6-dione] the same measures were below 100 nM and above 85%.
`CC(C(=O)N1CCN(C(=O)C2CCN(c3cc(C4CCC(=O)NC4=O)ccn3)CC2)CC1)N1CCC2(CC1)C(=O)N([C@H]1C[C@@H](N3CCCCC3)C1)c1cc(-c3cc4ncn(C(C)C)c4c(NC4CC4)n3)ccc12` (stereo partly drawn) [Example 173, 3-(2-{4-[4-(2-{6-[4-(cyclopropylamino)-3-(propan-2-yl)-3H-imidazo[4,5-c]pyridin-6-yl]-2-oxo-1-[(1S,3S)-3-(piperidin-1-yl)cyclobutyl]-1,2-dihydrospiro[indole-3,4′-piperidin]-1′-yl}propanoyl)piperazine-1-carbonyl]piperidin-1-yl}pyridin-4-yl)piperidine-2,6-dione]: the DC50 was 100 to 500 nM and the Dmax was in the range of 70 to 85%.
On the same counts, the results for `CC(C)n1cnc2cc(-c3ccc4c(c3)N([C@H]3C[C@@H](N5CCCCC5)C3)C(=O)C43CCN(C(=O)C4(C)CCN(C(=O)C5CCN(c6ccc(C7CCC(=O)NC7=O)cn6)CC5)CC4)CC3)nc(N[C@H]3C[C@@H](C#N)C3)c21` (stereo partly drawn) [Example 174, (1S,3S)-3-({6-[1′-(1-{1-[5-(2,6-dioxopiperidin-3-yl)pyridin-2-yl]piperidine-4-carbonyl}-4-methylpiperidine-4-carbonyl)-2-oxo-1-[(1S,3S)-3-(piperidin-1-yl)cyclobutyl]-1,2-dihydrospiro-[indole-3,4′-piperidin]-6-yl]-3-(propan-2-yl)-3H-imidazo[4,5-c]pyridin-4-yl}amino)cyclobutane-1-carbonitrile] are below 100 nM and above 85%.

For the origin of these results see patent US12091426B2, “Bifunctional degraders of hematopoietic progenitor kinase and therapeutic uses thereof” (Nurix Therapeutics, Inc., priority 2021, dated 2024).
